In publication PMC11173529, “Structure–Activity Relationship Studies in a Series of Xanthine Inhibitors of SLACK Potassium Channels” (Molecules, 2024):
Where two headings read alike, the source gives them in different places.

What was measured:
[1] = tested on: WT SLACK; design: method as in PMID 32408169; conditions: whole-cell patch-clamp electrophysiology; read-out: IC50 versus WT SLACK; cited from earlier work
[2] = tested on: hERG (KV11.1) channels; design: method as in PMID 32408169; conditions: at 10 µM; cited from earlier work
[3] = tested on: co-cultures of cortical neuronal and glial cells; design: method as in PMID 33143429; conditions: cited from earlier work
[4] = tested on: WT SLACK; design: method as in PMID 33143429; conditions: whole-cell APC, HEK-293 cells; read-out: IC50 versus WT SLACK; cited from earlier work
[5] = tested on: hERG channel; design: method as in PMID 33143429; conditions: Tl+-flux assay; cited from earlier work
[6] = tested on: Kcnt1^L/L mice; design: method as in PMID 36173683; conditions: mouse model using Kcnt1 L/L mice; cited from earlier work
[7] = tested on: GABAA Cl– channels; design: method as in PMID 33859800; conditions: binding displacement assay; cited from earlier work
[8] = tested on: SLACK; design: method as in PMID 33859800; conditions: whole-cell patch-clamp electrophysiology; read-out: IC50 versus WT SLACK; cited from earlier work
[9] = biological target: T1, WT hSLACK (Homo sapiens, UniProt Q5JUK3); test: Whole-cell automated patch-clamp (APC) in CHO cells stably expressing WT hSLACK; format: cell-based; conditions: for SLACK Imax: maximum inhibition at 30 µM test compound standardized to VU0606170 (set at 100%), WT hSLACK; for IC50: whole-cell APC, CHO cells stably expressing WT hSLACK, averages n ≥ 3, read-out: SLACK IC50
T1 construct: host or cells: CHO-K1
T1 sequence (Q5JUK3 1-1235 isoform Q5JUK3-3): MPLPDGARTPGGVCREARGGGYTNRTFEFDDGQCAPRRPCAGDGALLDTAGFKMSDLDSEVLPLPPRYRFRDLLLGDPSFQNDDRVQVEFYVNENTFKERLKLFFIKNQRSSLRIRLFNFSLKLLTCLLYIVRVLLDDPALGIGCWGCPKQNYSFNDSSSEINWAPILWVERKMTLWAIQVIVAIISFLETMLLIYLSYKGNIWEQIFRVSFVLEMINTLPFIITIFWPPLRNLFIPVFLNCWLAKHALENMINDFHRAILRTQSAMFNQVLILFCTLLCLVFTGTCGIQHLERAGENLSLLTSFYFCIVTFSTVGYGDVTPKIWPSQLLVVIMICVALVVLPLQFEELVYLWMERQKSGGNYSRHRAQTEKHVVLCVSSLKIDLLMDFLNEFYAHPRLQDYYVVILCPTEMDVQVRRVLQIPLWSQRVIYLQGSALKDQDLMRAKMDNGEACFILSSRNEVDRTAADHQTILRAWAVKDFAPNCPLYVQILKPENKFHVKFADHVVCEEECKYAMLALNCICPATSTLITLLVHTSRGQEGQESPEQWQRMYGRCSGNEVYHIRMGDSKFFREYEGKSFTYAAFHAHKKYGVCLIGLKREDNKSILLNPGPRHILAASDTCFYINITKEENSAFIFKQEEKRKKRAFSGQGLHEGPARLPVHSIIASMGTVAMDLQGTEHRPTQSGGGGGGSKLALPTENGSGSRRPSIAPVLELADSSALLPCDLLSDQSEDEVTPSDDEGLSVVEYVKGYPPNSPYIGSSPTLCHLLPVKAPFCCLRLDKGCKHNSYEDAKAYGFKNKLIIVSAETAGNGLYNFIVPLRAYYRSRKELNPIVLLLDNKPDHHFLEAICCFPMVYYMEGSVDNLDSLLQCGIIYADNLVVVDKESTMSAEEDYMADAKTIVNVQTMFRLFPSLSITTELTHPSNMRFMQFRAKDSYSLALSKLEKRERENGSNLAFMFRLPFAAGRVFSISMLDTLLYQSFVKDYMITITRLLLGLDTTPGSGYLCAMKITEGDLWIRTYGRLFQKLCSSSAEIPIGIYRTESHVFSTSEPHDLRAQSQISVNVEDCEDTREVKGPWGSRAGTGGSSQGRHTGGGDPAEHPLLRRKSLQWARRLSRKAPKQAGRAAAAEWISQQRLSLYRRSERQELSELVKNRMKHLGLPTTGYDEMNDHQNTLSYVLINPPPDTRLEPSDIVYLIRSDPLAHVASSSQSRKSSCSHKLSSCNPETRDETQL
Procedure: All new analogs were tested in our APC assay using CHO cells stably expressing WT SLACK using a concentration-response format with concentrations ranging from 0.125 to 30 μM in half-log steps and a minimum of three cells (replicates) per concentration series. […] Still, there were some notable results. For example, substitution at the 4-position was largely unfavorable regardless of the nature of the substituent (21, 24, 27, 30, and 33) apart from the 4-fluoro analog 18. […] As the trifluoromethyl group is similar in electronegativity to chlorine, but larger than both methyl and chlorine, perhaps the steric bulk of the trifluoromethyl is to blame for the poor potency of these analogs. With the exception of the fluoro (16–18) and cyano (28–30) analogs, substitution at the 3-position was favorable for SLACK activity, with 3-methoxy analog 32 standing out in this set.
Stably transfected monoclonal HEK293 cell lines expressing Slick, Maxi-K α1/β3, Maxi-K α1/β4, CaV3.2, GIRK 1/2, KV2.1, KV7.2, NaV1.7, and TASK-1 were generated as previously described. Stably transfected monoclonal HEK293 cell lines expressing hERG were generated as previously described. CHO-K1 cells expressing human Slack and disease-associated human Slack mutations, G288S and A934T, were generated by transfecting a PiggyBac TRE mammalian expression vector (VectorBuilder, Chicago, IL, USA) containing KCNT1. FuGENE 6 (Promega, Madison, WI, USA) transfection reagent and protocol, together with Opti-MEM (Thermo Fisher Scientific, Walkham, MA, USA), were utilized.
Automated patch-clamp recording was performed with a SyncroPatch 768 PE system (Nanion, Munich, Germany) as previously described. Whole-cell recordings were performed at room temperature. Cells were harvested by first washing with PBS without Mg^2+ or Ca^2+ (Gibco, Billings, MT, USA) to remove cell culture media, followed by dissociation with TryPLE (Gibco, Billings, MT, USA). Cells were then resuspended and diluted to 100,000 cells/mL in external solution. External solution contained 105 mM NaCl, 4 mM KCl, 1 mM MgCl2, 5 mM CaCl2, 10 mM HEPES, and 40 mM N-Methyl-D-glucamine chloride, titrated to pH of 7.4 and osmolarity of 300 mOsm/kg; internal solution contained 70 mM NaCl, 70 mM KF, 10 mM KCl, 5 mM EGTA, and 5 mM HEPES, titrated to a pH of 7.2 and osmolarity of 295 mOsm/kg.
The APC protocol was set as follows: Cells were held at a […] of −80 mV for 100 ms, then a ramp protocol was performed from −100 mV to 80 mV at 0.4 mV/ms, followed by holding the cell at −80 mV for another 100 ms, then steps were performed at −20 mV, 0 mV, +20 mV, +40 mV, and +60 mV for 100 ms of each step. Whole-cell currents were measured at 0 mV and normalized to current after external buffer addition. […] To obtain the concentration-response relationship graphs and IC50 values, we take the median value of the last 7 current amplitude values obtained for each set of data points collected for a given concentration at a particular step.

[10] = design: method as in PMID 37812884; conditions: cited from earlier work
[11] = tested on: WT SLACK; design: method as in PMID 37812884; conditions: whole-cell APC, CHO cells stably expressing WT SLACK; read-out: IC50 versus WT SLACK; cited from earlier work
[12] = tested on: A934T SLACK; design: method as in PMID 37812884; conditions: Tl+-flux assay; read-out: IC50 versus A934T SLACK; cited from earlier work
[13] = tested on: WT SLACK; design: method as in earlier work; conditions: APC assay; read-out: IC50 versus WT SLACK; cited from earlier work

Row | Compound | SLACK Imax [9] [%] | IC50 [9] [µM] | also measured
1 | O=C(Nc1cccc(C(F)(F)F)c1)c1ccc2nc(N3C(=O)c4ccccc4C3=O)sc2c1 [Compound 2] | – | – | IC50 [1]: 3 µM; hERG (KV11.1) inhibition [2]: 10–20%
2 | COc1ccc(Cl)cc1NC(=O)CN1CCN(S(=O)(=O)N2CCC(C)CC2)CC1 [Compound 6] | – | – | frequency of spontaneous calcium oscillations [3]: inhibited the frequency of spontaneous calcium oscillations; IC50 [4]: 1.7 µM; IC50 [5]: > 10 µM
3 | Cc1cccc(CC(=O)Nc2cnn(-c3cccc(C(=O)NCc4ccccc4-n4cncn4)c3)c2)c1 [Compound 1] | – | – | IC50 [1]: 3.2 µM; hERG (KV11.1) inhibition [2]: almost completely inhibited
4 | O=C(Nc1cccc(C(F)(F)F)c1)c1ccc(CSc2nnnn2-c2ccccc2)cc1 [Compound 3] | – | – | IC50 [1]: 1.6 µM; hERG (KV11.1) inhibition [2]: 45%
5 | C[C@H](NC(=O)c1cc(C(F)(F)F)nn1C)c1nc(-c2ccnc(C(F)(F)F)c2)no1 [Compound 4] | – | – | anticonvulsant effects [6]: demonstrated anticonvulsant effects; displacement at GABAA Cl– channels [7]: 74%; IC50 [8]: 0.04 µM
6 | Cc1ccc(Cn2c(=O)c3c(nc(N(C)Cc4ccccc4)n3C)n(C)c2=O)cc1 [Analog 24] | 102 | 5.5 | –
7 | CC(C)N(Cc1ccccc1)c1nc2c(c(=O)n(Cc3ccccc3)c(=O)n2C)n1C [Analog 69] | 100 | 3.4 | –
8 | Cc1ccc2cccc(S(=O)(=O)N3CC(c4nc(-c5ccc(F)cc5)no4)C3)c2n1 [Compound 7] | – | – | metabolism in mouse liver microsomes [10]: rapidly metabolized; IC50 [11]: 0.32 µM; IC50 [12]: 0.67 µM
9 | CN(Cc1ccncc1)c1nc2c(c(=O)n(Cc3ccccc3)c(=O)n2C)n1C [Analog 64] | 70 | > 10 | –
10 | COc1ccccc1CN(C)c1nc2c(c(=O)n(Cc3ccccc3)c(=O)n2C)n1C [Analog 59] | 101 | 4.7 | –
11 | Cn1c(CCc2ccccc2)nc2c1c(=O)n(Cc1ccccc1)c(=O)n2C [Analog 77] | 103 | 7 | –
12 | O=C(N[C@@H]1CCc2cc(Cl)ccc21)c1ccc(S(=O)(=O)N2CCCC2)s1 [Compound 5] | – | – | IC50 [13]: < 1 µM
13 | CN(Cc1ccccc1)c1nc2c(c(=O)n(Cc3ccccc3)c(=O)n2C)n1CC1CC1 [Analog 43] | 55 | > 10 | –
14 | CN(Cc1ccccc1Cl)c1nc2c(c(=O)n(Cc3ccccc3)c(=O)n2C)n1C [Analog 50] | 100 | 3 | –
15 | CN(Cc1cccc(Cl)c1)c1nc2c(c(=O)n(Cc3ccccc3)c(=O)n2C)n1C [Analog 51] | 100 | 1.7 | –
